# In PubChem BioAssay AID226 (DTP/NCI, 2004):
# Where “and” joins values, the source holds several entries; their conditions need not be identical. Identical values can stand only once. Inconclusive results and toxic doses are left out.
# System: B6C3F1 mice, intracerebral ependymoblastoma, median survival T/C
# Test: NCI In Vivo Anticancer Drug Screen. Data for tumor model Ependymoblastoma (intracerebral) in B6C3F1 mice
# Settings: endpoint: median survival time, higher = longer survival
# Protocol: The antitumor activity of compounds was measured in mice bearing transplantable tumors. Survival or tumor size were measured and the results are expressed as the measurement made in the treated group (T) divided by the measurement made in the vehicle treated control group (C). The tumor model used in this assay is Ependymoblastoma (intracerebral) in B6C3F1 mice
# [1] = dose: 0.5 mg/kg/injection, schedule: Q01DX005 (ip), vehicle: Klucel (hydroxypropylcellulose) (HPC)
compound,measurement,setting,value
CN(C)/N=N/c1[nH]ncc1C(N)=O,T/C,"dose: 32.0 mg/kg/injection, schedule: Q01DX005 (ip), vehicle: saline",150 % of control
same,T/C,"dose: 64.0 mg/kg/injection, schedule: Q01DX005 (ip), vehicle: saline",176 % of control
same,T/C,"dose: 128.0 mg/kg/injection, schedule: Q01DX005 (ip), vehicle: saline with Tween-80",151 % of control
same,T/C,"dose: 128.0 mg/kg/injection, schedule: Q01DX005 (ip), vehicle: saline",155 % of control
same,T/C,"dose: 256.0 mg/kg/injection, schedule: Q01DX005 (ip), vehicle: saline",96 % of control
Nc1nncs1,T/C,"dose: 6.25 mg/kg/injection, schedule: Q01DX009 (ip), vehicle: saline",91 % of control
same,T/C,"dose: 12.5 mg/kg/injection, schedule: Q01DX009 (ip), vehicle: saline",96 % of control
same,T/C,"dose: 25.0 mg/kg/injection, schedule: Q01DX009 (ip), vehicle: saline",102 % of control
same,T/C,"dose: 50.0 mg/kg/injection, schedule: Q01DX009 (ip), vehicle: saline",115 % of control
same,T/C,"dose: 64.0 mg/kg/injection, schedule: Q01DX005 (ip), vehicle: saline with Tween-80",110 % of control
same,T/C,"dose: 100.0 mg/kg/injection, schedule: Q01DX009 (ip), vehicle: saline",107 % of control
CSCS(=O)C[C@H](CO)NC(=O)/C=C/c1c(C)[nH]c(=O)[nH]c1=O (some centres not stated),T/C,"dose: 0.06 mg/kg/injection, schedule: Q01DX005 (ip), vehicle: Klucel (hydroxypropylcellulose) (HPC)",105 % of control
same,T/C,"dose: 0.12 mg/kg/injection, schedule: Q01DX001 (ip), vehicle: Klucel (hydroxypropylcellulose) (HPC)",102 % of control and 104 % of control and 107 % of control
same,T/C,"dose: 0.12 mg/kg/injection, schedule: Q01DX005 (ip), vehicle: Klucel (hydroxypropylcellulose) (HPC)",100 % of control
same,T/C,"dose: 0.25 mg/kg/injection, schedule: Q01DX001 (ip), vehicle: Klucel (hydroxypropylcellulose) (HPC)",101 % of control and 102 % of control and 112 % of control
same,T/C,"dose: 0.25 mg/kg/injection, schedule: Q01DX005 (ip), vehicle: Klucel (hydroxypropylcellulose) (HPC)",105 % of control
same,T/C,"dose: 0.5 mg/kg/injection, schedule: Q01DX001 (ip), vehicle: Klucel (hydroxypropylcellulose) (HPC)",97 % of control and 103 % of control and 109 % of control
same,T/C,[1],102 % of control
same,T/C,"dose: 1.0 mg/kg/injection, schedule: Q01DX001 (ip), vehicle: Klucel (hydroxypropylcellulose) (HPC)",96 % of control and 97 % of control and 102 % of control
CN=S(=O)(OCCCCCOS(=O)(=NC)c1ccccc1)c1ccccc1 (configuration not stated),T/C,"dose: 6.25 mg/kg/injection, schedule: Q01DX005 (ip), vehicle: saline with Tween-80",110 % of control
same,T/C,"dose: 12.5 mg/kg/injection, schedule: Q01DX005 (ip), vehicle: saline with Tween-80",100 % of control
same,T/C,"dose: 25.0 mg/kg/injection, schedule: Q01DX005 (ip), vehicle: saline with Tween-80",95 % of control and 106 % of control
same,T/C,"dose: 50.0 mg/kg/injection, schedule: Q01DX005 (ip), vehicle: saline with Tween-80",111 % of control and 112 % of control
same,T/C,"dose: 100.0 mg/kg/injection, schedule: Q01DX005 (ip), vehicle: saline with Tween-80",101 % of control and 123 % of control
O=C(O)CCCc1ccc(N(CCCl)CCCl)cc1,T/C,[1],114 % of control
same,T/C,"dose: 1.0 mg/kg/injection, schedule: Q01DX005 (ip), vehicle: Klucel (hydroxypropylcellulose) (HPC)",114 % of control
same,T/C,"dose: 1.0 mg/kg/injection, schedule: Q01DX005 (ip), vehicle: saline with Tween-80",120 % of control
same,T/C,"dose: 2.0 mg/kg/injection, schedule: Q01DX001 (ip), vehicle: Klucel (hydroxypropylcellulose) (HPC)",103 % of control and 104 % of control (2×)
same,T/C,"dose: 2.0 mg/kg/injection, schedule: Q01DX005 (ip), vehicle: Klucel (hydroxypropylcellulose) (HPC)",113 % of control
same,T/C,"dose: 4.0 mg/kg/injection, schedule: Q01DX001 (ip), vehicle: Klucel (hydroxypropylcellulose) (HPC)",97 % of control and 104 % of control and 105 % of control
same,T/C,"dose: 4.0 mg/kg/injection, schedule: Q01DX005 (ip), vehicle: Klucel (hydroxypropylcellulose) (HPC)",105 % of control
same,T/C,"dose: 8.0 mg/kg/injection, schedule: Q01DX001 (ip), vehicle: Klucel (hydroxypropylcellulose) (HPC)",100 % of control and 101 % of control and 108 % of control
same,T/C,"dose: 8.0 mg/kg/injection, schedule: Q01DX005 (ip), vehicle: Klucel (hydroxypropylcellulose) (HPC)",113 % of control
same,T/C,"dose: 8.0 mg/kg/injection, schedule: Q01DX005 (ip), vehicle: saline with Tween-80",153 % of control
same,T/C,"dose: 16.0 mg/kg/injection, schedule: Q01DX001 (ip), vehicle: Klucel (hydroxypropylcellulose) (HPC)",104 % of control and 108 % of control and 110 % of control
same,T/C,"dose: 16.0 mg/kg/injection, schedule: Q01DX005 (ip), vehicle: saline with Tween-80",180 % of control
same,T/C,"dose: 32.0 mg/kg/injection, schedule: Q01DX001 (ip), vehicle: Klucel (hydroxypropylcellulose) (HPC)",114 % of control and 117 % of control and 121 % of control
